# Assay results from US10175256B2, “Compositions and methods utilizing lysophosphatidylcholine scaffolds” (National University Of Singapore, priority 2013, dated 2019).
# “And” between values parts separate entries of the source, which are not always exact repeats. Equal entries are not always repeated.
# Legend:
# mouse Mfsd2a [1] = assay: Cell-based free fatty acid transport/uptake in Mfsd2a expressing HEK293 cells (mass spectrometry, TLC; Table 1); details: for Amount of each lipid species, mol percent in total phospholipid analysed / Amount of each lipid species normalized to internal standard, mol percent in total phospholipid analysed / Amount of lipid species, mol percent in total phospholipid analysed: MS, replicate columns
# Procedure: (§1) FIG. 12. […] Std: free [^14C]-DHA. b. TLC analysis of phospholipids and neutral lipids of HEK293 cells transfected with mouse Mfsd2a and mutants after overnight incubation with 100 μM [^14C]-oleate. TLC protocol used was described in Methods. PC: phosphatidylcholine, PE: phosphatidylethanolamine, TAG: triglyceride, CE: cholesteryl ester.
# (§2) For tissue lipid analysis, brain, liver, and heart of female WT and KO mice with age of 7-8 weeks born to HET mothers, and brains from e18.5 embryos were collected and immediately frozen with liquid nitrogen until extraction. Lipid extraction was followed by chloroform/methanol method. For cell-based free fatty acid transport, lipids from HEK293 cells expressing mouse Mfsd2a and mock controls after overnight treatment with 100 μM docosahexaenoic, arachidonic, eicosapentaenoic, alpha-linolenic, linoleic, oleic, palmitic acids in BSA complex were extracted using HIP buffer (hexane:iso-propanol 3:2, per volume) and dried under N2 gas. Phospholipid species were measured by high performance liquid chromatography (HPLC) 1100 system (Agilent) coupled with an Triple Quadrupole/Ion Trap mass spectrometer (4000Qtrap, Applied Biosystem). Levels of individual phospholipid species were analyzed as described previously and quantified using spiked internal standards that includes PC-14:0/14:0, PE-14:0/14:0, PS-14:0/14:0 (Avanti Polar Lipids, Alabaster, Ala., USA), and dioctanoyl PI (Echelon Biosciences, Inc., Salt Lake City, Utah, USA).
# mouse Mfsd2a [2] = target: T1, mouse Mfsd2a (Mus musculus, UniProt Q9DA75); assay: as above; details: for Amount of each lipid species, mol percent in total phospholipid analysed / Amount of lipid species, mol percent in total phospholipid analysed / Amount of each lipid species normalized to internal standard, mol percent in total phospholipid analysed: replicate columns; for Amount of lipid species, mol percent in total phospholipid analysed / Amount of each lipid species normalized to internal standard, mol percent in total phospholipid analysed: Mfsd2a expressing HEK293 cells
# T1 construct: expressed in transfected cells; host or cells: HEK293
# T1 sequence (Q9DA75 1-534): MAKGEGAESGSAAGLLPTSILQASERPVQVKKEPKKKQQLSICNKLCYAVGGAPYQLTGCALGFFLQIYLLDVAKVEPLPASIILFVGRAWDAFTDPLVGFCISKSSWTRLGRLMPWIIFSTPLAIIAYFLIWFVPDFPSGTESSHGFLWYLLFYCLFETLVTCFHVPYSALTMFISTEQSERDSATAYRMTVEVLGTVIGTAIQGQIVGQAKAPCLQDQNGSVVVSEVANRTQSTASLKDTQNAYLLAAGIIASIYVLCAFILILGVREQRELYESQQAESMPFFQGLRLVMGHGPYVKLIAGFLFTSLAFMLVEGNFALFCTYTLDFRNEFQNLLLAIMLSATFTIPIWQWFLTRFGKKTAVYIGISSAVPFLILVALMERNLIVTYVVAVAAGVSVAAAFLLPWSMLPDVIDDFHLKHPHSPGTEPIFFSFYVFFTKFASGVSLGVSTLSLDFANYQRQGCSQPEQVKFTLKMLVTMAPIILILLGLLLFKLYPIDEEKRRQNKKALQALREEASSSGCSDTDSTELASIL
# Procedure: as §1, §2
# [3] = mock HEK293 cells incubated with 100 uM Arachidonic fatty acid/BSA complex overnight
# [4] = Mfsd2a expressing HEK293 cells incubated with 100 uM Arachidonic fatty acid/BSA complex overnight, MS
# [5] = mock HEK293 cells, 100 uM Docosahexaenoic acid/BSA complex overnight
# [6] = mock HEK293 cells, 100 uM Oleic fatty acid/BSA complex overnight
# [7] = 100 uM Alpha-linolenic fatty acid/BSA complex overnight
# [8] = 100 uM Docosahexaenoic acid/BSA complex overnight, MS
# [9] = 100 uM Oleic fatty acid/BSA complex overnight, MS
# [10] = mock HEK293 cells, 100 uM fatty acid/BSA overnight
# [11] = Mfsd2a HEK293 cells, 100 uM fatty acid/BSA overnight
compound,measurement,setting,value
CCCCCCCCCCCCCC/C=C\OC[C@@H](O)COP(=O)(O)OCCN [LysoPE16:0p],"Amount of each lipid species, mol percent in total phospholipid analysed",mouse Mfsd2a [1]; [3],3.439 mol percent and 2.895 mol percent and 2.928 mol percent
same,"Amount of each lipid species, mol percent in total phospholipid analysed",mouse Mfsd2a [2]; [4],2.79 mol percent and 2.681 mol percent and 2.307 mol percent and 2.64 mol percent
CCCCCCCCCCCCCCCCCC(=O)OC[C@@H](O)COP(=O)(O)OCCN [LysoPE18:0],"Amount of each lipid species, mol percent in total phospholipid analysed",mouse Mfsd2a [1]; [3],0.1798 mol percent and 0.2163 mol percent and 0.1654 mol percent
same,"Amount of each lipid species normalized to internal standard, mol percent in total phospholipid analysed",mouse Mfsd2a [1]; [5],0.2527 mol percent and 0.249 mol percent and 0.1539 mol percent
same,"Amount of each lipid species normalized to internal standard, mol percent in total phospholipid analysed","mouse Mfsd2a [1]; mock HEK293 cells, 100 uM Eicosapentaenoic acid/BSA complex overnight",0.2356 mol percent and 0.2515 mol percent and 0.1233 mol percent
same,"Amount of lipid species, mol percent in total phospholipid analysed",mouse Mfsd2a [1]; [6],0.168 mol percent and 0.1023 mol percent and 0.04024 mol percent
same,"Amount of each lipid species, mol percent in total phospholipid analysed",mouse Mfsd2a [2]; [4],0.2569 mol percent and 0.2304 mol percent and 0.2461 mol percent and 0.117 mol percent
same,"Amount of lipid species, mol percent in total phospholipid analysed",mouse Mfsd2a [2]; [7],0.3947 mol percent and 0.2832 mol percent and 0.2186 mol percent and 0.3429 mol percent
same,"Amount of lipid species, mol percent in total phospholipid analysed",mouse Mfsd2a [2]; 100 uM Linoleic fatty acid/BSA complex overnight,0.1058 mol percent and 0.1018 mol percent and 0.1894 mol percent and 0.0869 mol percent
same,"Amount of each lipid species normalized to internal standard, mol percent in total phospholipid analysed",mouse Mfsd2a [2]; [8],0.1666 mol percent and 0.2308 mol percent (2×) and 0.1334 mol percent
same,"Amount of each lipid species normalized to internal standard, mol percent in total phospholipid analysed","mouse Mfsd2a [2]; 100 uM Eicosapentaenoic acid/BSA complex overnight, MS",0.1092 mol percent and 0.307 mol percent and 0.1931 mol percent and 0.2135 mol percent
same,"Amount of lipid species, mol percent in total phospholipid analysed",mouse Mfsd2a [2]; [9],0.09201 mol percent and 0.1193 mol percent and 0.148 mol percent and 0.05384 mol percent
CCCCCCCCCCCCCCCC/C=C\OC[C@@H](O)COP(=O)(O)OCCN [LysoPE18:0p],"Amount of each lipid species, mol percent in total phospholipid analysed",mouse Mfsd2a [1]; [3],0.6519 mol percent and 0.416 mol percent and 0.215 mol percent
same,"Amount of each lipid species, mol percent in total phospholipid analysed",mouse Mfsd2a [2]; [4],0.5873 mol percent and 0.5865 mol percent and 0.323 mol percent and 0.5348 mol percent
CCCCCCCCCCCCCCCCCC/C=C\OC[C@@H](O)COP(=O)(O)OCCN [LysoPE20:0p],"Amount of each lipid species, mol percent in total phospholipid analysed",mouse Mfsd2a [1]; [3],0.2922 mol percent and 0.183 mol percent and 0.1158 mol percent
same,"Amount of each lipid species, mol percent in total phospholipid analysed",mouse Mfsd2a [2]; [4],0.3303 mol percent and 0.2723 mol percent and 0.1846 mol percent and 0.2172 mol percent
CCCCCCCC/C=C\CCCCCCCC(=O)O [Oleic],% DHA in PS,mouse Mfsd2a [1]; [10],0.107% and 0.1103% and 0.1249%
same,PS(sum) in total phospholipid,mouse Mfsd2a [1]; [10],2.685 mol percent and 3.082 mol percent and 2.902 mol percent
same,PS:36:1 in total phospholipid,mouse Mfsd2a [1]; [10],1.21 mol percent and 1.398 mol percent and 1.339 mol percent
same,PS:36:2 in total phospholipid,mouse Mfsd2a [1]; [10],0.4461 mol percent and 0.5356 mol percent and 0.4546 mol percent
same,PS:36:3 in total phospholipid,mouse Mfsd2a [1]; [10],0.0148 mol percent and 0.01325 mol percent and 0.01917 mol percent
same,PS:38:2 in total phospholipid,mouse Mfsd2a [1]; [10],0.2083 mol percent and 0.235 mol percent and 0.2311 mol percent
same,PS:38:3 in total phospholipid,mouse Mfsd2a [1]; [10],0.1326 mol percent and 0.1657 mol percent and 0.1369 mol percent
same,PS:38:4 in total phospholipid,mouse Mfsd2a [1]; [10],0.07625 mol percent and 0.06869 mol percent and 0.07723 mol percent
same,PS:38:5 in total phospholipid,mouse Mfsd2a [1]; [10],0.01081 mol percent and 0.01386 mol percent and 0.0115 mol percent
same,PS:40:4 in total phospholipid,mouse Mfsd2a [1]; [10],0.09048 mol percent and 0.1018 mol percent and 0.09531 mol percent
same,PS:40:5 in total phospholipid,mouse Mfsd2a [1]; [10],0.06829 mol percent and 0.04459 mol percent and 0.0619 mol percent
same,PS:40:6 in total phospholipid,mouse Mfsd2a [1]; [10],0.09845 mol percent and 0.1006 mol percent and 0.1134 mol percent
same,PS:40:7 in total phospholipid,mouse Mfsd2a [1]; [10],0.008536 mol percent and 0.00964 mol percent and 0.0115 mol percent
same,% DHA in PS,mouse Mfsd2a [2]; [11],0.1056% and 0.1088% and 0.1312% and 0.1092%
same,PS(sum) in total phospholipid,mouse Mfsd2a [2]; [11],2.787 mol percent and 2.992 mol percent and 3.252 mol percent and 2.587 mol percent
same,PS:36:1 in total phospholipid,mouse Mfsd2a [2]; [11],1.289 mol percent and 1.358 mol percent and 1.479 mol percent and 1.19 mol percent
same,PS:36:2 in total phospholipid,mouse Mfsd2a [2]; [11],0.4671 mol percent and 0.4839 mol percent and 0.5719 mol percent and 0.4252 mol percent
same,PS:36:3 in total phospholipid,mouse Mfsd2a [2]; [11],0.0188 mol percent and 0.02264 mol percent and 0.01888 mol percent and 0.01251 mol percent
same,PS:36:4 in total phospholipid,mouse Mfsd2a [2]; [11],0.003419 mol percent and 0.003995 mol percent and 0.004969 mol percent and 0.003335 mol percent
same,PS:38:2 in total phospholipid,mouse Mfsd2a [2]; [11],0.2325 mol percent and 0.2459 mol percent and 0.2529 mol percent and 0.1984 mol percent
same,PS:38:3 in total phospholipid,mouse Mfsd2a [2]; [11],0.1257 mol percent and 0.1554 mol percent and 0.1491 mol percent and 0.1276 mol percent
same,PS:38:4 in total phospholipid,mouse Mfsd2a [2]; [11],0.06539 mol percent and 0.08301 mol percent and 0.08249 mol percent and 0.07253 mol percent
same,PS:38:5 in total phospholipid,mouse Mfsd2a [2]; [11],0.008121 mol percent and 0.01199 mol percent and 0.01093 mol percent and 0.01084 mol percent
same,PS:40:4 in total phospholipid,mouse Mfsd2a [2]; [11],0.09916 mol percent and 0.08523 mol percent and 0.1014 mol percent and 0.07753 mol percent
same,PS:40:5 in total phospholipid,mouse Mfsd2a [2]; [11],0.05001 mol percent and 0.05638 mol percent and 0.05863 mol percent and 0.05419 mol percent
same,PS:40:6 in total phospholipid,mouse Mfsd2a [2]; [11],0.09445 mol percent and 0.09677 mol percent and 0.1222 mol percent and 0.0942 mol percent
same,PS:40:7 in total phospholipid,mouse Mfsd2a [2]; [11],0.01111 mol percent and 0.01199 mol percent and 0.008944 mol percent and 0.01501 mol percent
PE38:5,"Amount of each lipid species, mol percent in total phospholipid analysed",mouse Mfsd2a [1]; [3],1.648 mol percent and 1.509 mol percent and 1.4 mol percent
same,"Amount of each lipid species, mol percent in total phospholipid analysed",mouse Mfsd2a [1]; mock HEK293 cells incubated with 100 uM Eicosapentaenoic fatty acid/BSA complex overnight,1.214 mol percent and 0.8982 mol percent and 0.9456 mol percent
same,"Amount of each lipid species normalized to internal standard, mol percent in total phospholipid analysed",mouse Mfsd2a [1]; [5],0.6844 mol percent and 0.8632 mol percent and 0.5129 mol percent
same,"Amount of lipid species, mol percent in total phospholipid analysed","mouse Mfsd2a [1]; mock HEK293 cells, 100 uM Linoleic fatty acid/BSA complex overnight",0.9188 mol percent and 0.8836 mol percent and 0.7914 mol percent
same,"Amount of lipid species, mol percent in total phospholipid analysed",mouse Mfsd2a [1]; [6],0.809 mol percent and 0.6822 mol percent and 0.456 mol percent
same,"Amount of each lipid species, mol percent in total phospholipid analysed",mouse Mfsd2a [2]; [4],1.517 mol percent and 1.746 mol percent and 1.538 mol percent and 1.292 mol percent
same,"Amount of each lipid species, mol percent in total phospholipid analysed","mouse Mfsd2a [2]; Mfsd2a expressing HEK293 cells incubated with 100 uM Eicosapentaenoic fatty acid/BSA complex overnight, MS",0.8525 mol percent and 0.7862 mol percent and 1.249 mol percent and 0.8033 mol percent
same,"Amount of lipid species, mol percent in total phospholipid analysed",mouse Mfsd2a [2]; [7],2.013 mol percent and 1.902 mol percent and 1.704 mol percent and 1.689 mol percent
same,"Amount of each lipid species normalized to internal standard, mol percent in total phospholipid analysed",mouse Mfsd2a [2]; [8],0.6996 mol percent and 0.7565 mol percent and 0.8996 mol percent and 0.9147 mol percent
same,"Amount of lipid species, mol percent in total phospholipid analysed","mouse Mfsd2a [2]; 100 uM Linoleic fatty acid/BSA complex overnight, MS",0.714 mol percent and 1.007 mol percent and 0.7471 mol percent and 0.7035 mol percent
same,"Amount of lipid species, mol percent in total phospholipid analysed",mouse Mfsd2a [2]; [9],0.6441 mol percent and 0.6477 mol percent and 0.57 mol percent and 0.5862 mol percent
